According to patent US20240208992A1, “MACROCYCLES AS CFTR MODULATORS” (Idorsia Pharmaceuticals Ltd, priority 2021, published 2024):

Molecular target: human F508del-CFTR (Homo sapiens, UniProt P13569, DEL508-508)
Experiment: F508del-CFTR cell surface expression (corrector activity), DiscoveRx ß-galactosidase complementation chemiluminescence assay in recombinant U2OS cell line;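 further: U2OS cells co-expressing ProLink-tagged F508del-CFTR and a membrane-anchored enzyme acceptor, where more surface CFTR restores β-galactosidase activity measured by chemiluminescence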
Conditions: U2OS cells, 16h compound incubation; for EC50: EC50, F508del-CFTR cell surface expression, geomean of several measurements; for Emax: U2OS, in relation to the Emax of the corrector lumacaftor (=100%), arithmetic mean

Sequence of human F508del-CFTR (P13569 with tags, fused parts or gaps DEL508-508): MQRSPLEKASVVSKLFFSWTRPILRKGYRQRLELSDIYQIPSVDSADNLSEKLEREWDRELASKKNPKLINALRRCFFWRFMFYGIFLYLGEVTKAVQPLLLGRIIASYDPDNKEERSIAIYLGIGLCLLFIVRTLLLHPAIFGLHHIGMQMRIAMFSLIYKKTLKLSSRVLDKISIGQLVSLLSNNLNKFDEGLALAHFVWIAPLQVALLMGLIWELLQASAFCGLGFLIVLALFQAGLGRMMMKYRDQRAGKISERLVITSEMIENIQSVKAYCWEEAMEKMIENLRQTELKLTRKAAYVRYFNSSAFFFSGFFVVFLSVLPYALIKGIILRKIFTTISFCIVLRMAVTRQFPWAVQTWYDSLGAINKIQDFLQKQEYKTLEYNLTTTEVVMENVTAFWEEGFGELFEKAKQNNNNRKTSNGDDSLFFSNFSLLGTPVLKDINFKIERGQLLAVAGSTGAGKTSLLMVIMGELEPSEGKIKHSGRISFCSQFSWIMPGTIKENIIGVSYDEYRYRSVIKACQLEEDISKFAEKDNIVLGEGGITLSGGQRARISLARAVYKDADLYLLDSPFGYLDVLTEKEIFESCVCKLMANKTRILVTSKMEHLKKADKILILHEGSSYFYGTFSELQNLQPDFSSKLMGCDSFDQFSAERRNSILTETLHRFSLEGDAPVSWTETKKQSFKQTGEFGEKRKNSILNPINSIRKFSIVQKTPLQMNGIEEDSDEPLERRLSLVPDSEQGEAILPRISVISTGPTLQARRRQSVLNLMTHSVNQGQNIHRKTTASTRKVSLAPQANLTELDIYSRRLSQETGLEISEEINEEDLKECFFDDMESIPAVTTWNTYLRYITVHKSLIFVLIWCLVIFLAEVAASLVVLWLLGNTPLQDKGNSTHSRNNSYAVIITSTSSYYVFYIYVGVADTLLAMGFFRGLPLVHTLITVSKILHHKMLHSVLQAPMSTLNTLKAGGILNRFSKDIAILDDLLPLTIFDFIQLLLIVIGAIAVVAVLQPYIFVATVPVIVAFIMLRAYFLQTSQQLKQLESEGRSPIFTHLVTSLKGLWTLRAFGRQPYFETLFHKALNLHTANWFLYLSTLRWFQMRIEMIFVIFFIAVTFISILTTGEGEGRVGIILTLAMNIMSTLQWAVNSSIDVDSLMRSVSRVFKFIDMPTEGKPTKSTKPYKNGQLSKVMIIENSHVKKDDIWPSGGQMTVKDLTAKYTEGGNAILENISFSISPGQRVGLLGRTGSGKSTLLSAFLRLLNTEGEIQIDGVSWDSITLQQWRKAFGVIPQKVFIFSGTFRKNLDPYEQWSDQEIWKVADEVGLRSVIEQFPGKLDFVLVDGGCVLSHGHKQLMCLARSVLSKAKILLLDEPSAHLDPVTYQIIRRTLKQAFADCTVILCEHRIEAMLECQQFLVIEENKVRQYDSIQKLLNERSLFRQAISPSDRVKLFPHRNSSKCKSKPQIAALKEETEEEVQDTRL

EC50	Emax	SMILES
46 nM	465%	COc1nc(C)cc2c1C(=O)N[C@H](C(=O)NCCc1nc(C3CC3)no1)CC(=O)N(C)[C@@H](CC(C)C)C(=O)N(C)[C@H](Cc1nc(C(F)(F)F)no1)C(=O)N[C@H](Cc1ccccc1)CO2 [Example 849, (3R,6R,9S,13S)-3-benzyl-N-(2-(3-cyclopropyl-1,2,4-oxadiazol-5-yl)ethyl)-9-isobutyl-16-methoxy-7,10,18-trimethyl-5,8,11,15-tetraoxo-6-((3-(trifluoromethyl)-1,2,4-oxadiazol-5-yl)methyl)-2,3,4,5,6,7,8,9,10,11,12,13,14,15-tetradecahydropyrido[3,4-p][1]oxa[4,7,10,14]tetraazacycloheptadecine-13-carboxamide]
1150 nM	224%	COc1nccc2c1C(=O)N[C@H](C(=O)NCCCOC(F)F)CC(=O)N(C)[C@@H](CC(C)C)C(=O)N1CCCC[C@@H]1C(=O)N[C@H](Cc1ccccc1)CO2 [Example 850, (7S,11S,17aR,20R)-20-benzyl-N-(3-(difluoromethoxy)propyl)-11-isobutyl-4-methoxy-10-methyl-5,9,12,18-tetraoxo-5,6,7,8,9,10,11,12,15,16,17,17a,18,19,20,21-hexadecahydro-14H-dipyrido[2,1-f:3′,4′-p][1]oxa[4,7,10,14]tetraazacycloheptadecine-7-carboxamide]
163 nM	249%	Cc1cc(CCNC(=O)[C@@H]2CC(=O)N(C)[C@@H](CC(C)C)C(=O)N3CCN(c4ccc(F)cn4)C[C@@H]3C(=O)N[C@H](Cc3ccccc3)COc3cnc4ccccc4c3C(=O)N2)on1 [Example 852, (9S,13S,19aR,22R)-22-benzyl-18-(5-fluoropyridin-2-yl)-13-isobutyl-12-methyl-N-(2-(3-methylisoxazol-5-yl)ethyl)-7,11,14,20-tetraoxo-7,8,9,10,11,12,13,14,17,18,19,19a,20,21,22,23-hexadecahydro-16H-pyrazino[2′,11:6,7][1]oxa[4,7,10,14]tetraazacycloheptadecino[17,16-c]quinoline-9-carboxamide]
136 nM	326%	COc1cc(CCNC(=O)[C@@H]2CC(=O)N(C)[C@@H](CC(C)C)C(=O)N(C)[C@H](CC3CCC(F)(F)CC3)C(=O)N[C@H](Cc3ccccc3)COc3ccnc(OC)c3C(=O)N2)on1 [Example 854, (3R,6R,9S,13S)-3-benzyl-6-((4,4-difluorocyclohexyl)methyl)-9-isobutyl-16-methoxy-N-(2-(3-methoxyisoxazol-5-yl)ethyl)-7,10-dimethyl-5,8,11,15-tetraoxo-2,3,4,5,6,7,8,9,10,11,12,13,14,15-tetradecahydropyrido[3,4-p][1]oxa[4,7,10,14]tetraazacycloheptadecine-13-carboxamide]
95 nM	308%	COc1nccc2c1C(=O)N[C@H](C(=O)NCCc1cc(C)no1)CC(=O)N(C)[C@@H](CC(C)C)C(=O)N(C)[C@H](CCOC1CCCCC1)C(=O)N[C@H](Cc1ccccc1)CO2 [Example 858, (3R,6R,9S,13S)-3-benzyl-6-(2-(cyclohexyloxy)ethyl)-9-isobutyl-16-methoxy-7,10-dimethyl-N-(2-(3-methylisoxazol-5-yl)ethyl)-5,8,11,15-tetraoxo-2,3,4,5,6,7,8,9,10,11,12,13,14,15-tetradecahydropyrido[3,4-p][1]oxa[4,7,10,14]tetraazacycloheptadecine-13-carboxamide]

More lines, now with the values behind:

SMILES	EC50	Emax
COc1nc(C)cc2c1C(=O)N[C@H](C(=O)NC[C@@H](O)c1ccccc1)CC(=O)N(C)[C@@H](CC(C)C)C(=O)N(C)[C@H](Cc1nc(C(F)(F)F)no1)C(=O)N[C@H](Cc1ccccc1)CO2 [Example 848, (3R,6R,9S,13S)-3-benzyl-N-((S)-2-hydroxy-2-phenylethyl)-9-isobutyl-16-methoxy-7,10,18-trimethyl-5,8,11,15-tetraoxo-6-((3-(trifluoromethyl)-1,2,4-oxadiazol-5-yl)methyl)-2,3,4,5,6,7,8,9,10,11,12,13,14,15-tetradecahydropyrido[3,4-p][1]oxa[4,7,10,14]tetraazacycloheptadecine-13-carboxamide]	225 nM	364%
Cc1noc(CC[C@@H]2C(=O)N[C@H](Cc3ccccc3)COc3cnc4ccc(F)cc4c3C(=O)N[C@H](C(=O)NCCc3noc(C4CC4)n3)CC(=O)N(C)[C@@H](CC(C)C)C(=O)N2C)n1 [Example 851, (3S,7S,10R,13R)-13-benzyl-N-(2-(5-cyclopropyl-1,2,4-oxadiazol-3-yl)ethyl)-20-fluoro-7-isobutyl-6,9-dimethyl-10-(2-(3-methyl-1,2,4-oxadiazol-5-yl)ethyl)-1,5,8,11-tetraoxo-1,2,3,4,5,6,7,8,9,10,11,12,13,14-tetradecahydro-[1]oxa[4,7,10,14]tetraazacycloheptadecino[17,16-c]quinoline-3-carboxamide]	148 nM	310%
COc1cccc(CCNC(=O)[C@@H]2CC(=O)N(C)[C@@H](CC(C)C)C(=O)N3CCN(c4ccc(F)cn4)C[C@@H]3C(=O)N[C@H](Cc3ccccc3)COc3cnc4ccccc4c3C(=O)N2)c1 [Example 853, (9S,13S,19aR,22R)-22-benzyl-18-(5-fluoropyridin-2-yl)-13-isobutyl-N-(3-methoxyphenethyl)-12-methyl-7,11,14,20-tetraoxo-7,8,9,10,11,12,13,14,17,18,19,19a,20,21,22,23-hexadecahydro-16H-pyrazino[2′,1′:6,7][1]oxa[4,7,10,14]tetraazacycloheptadecino[17,16-c]quinoline-9-carboxamide]	92 nM	322%
COc1nccc2c1C(=O)N[C@H](C(=O)NCCc1cc(C)no1)CC(=O)N(C)[C@@H](CC(C)C)C(=O)N(C)[C@H](CCOc1ccccc1)C(=O)N[C@H](Cc1ccccc1)CO2 [Example 855, (3R,6R,9S,13S)-3-benzyl-9-isobutyl-16-methoxy-7,10-dimethyl-N-(2-(3-methylisoxazol-5-yl)ethyl)-5,8,11,15-tetraoxo-6-(2-phenoxyethyl)-2,3,4,5,6,7,8,9,10,11,12,13,14,15-tetradecahydropyrido[3,4-p][1]oxa[4,7,10,14]tetraazacycloheptadecine-13-carboxamide]	80 nM	341%
COc1cc(CCNC(=O)[C@@H]2CC(=O)N(C)[C@@H](CC(C)C)C(=O)N(C)[C@H](CCOc3ccccc3)C(=O)N[C@H](Cc3ccccc3)COc3ccnc(OC)c3C(=O)N2)on1 [Example 856, (3R,6R,9S,13S)-3-benzyl-9-isobutyl-16-methoxy-N-(2-(3-methoxyisoxazol-5-yl)ethyl)-7,10-dimethyl-5,8,11,15-tetraoxo-6-(2-phenoxyethyl)-2,3,4,5,6,7,8,9,10,11,12,13,14,15-tetradecahydropyrido[3,4-p][1]oxa[4,7,10,14]tetraazacycloheptadecine-13-carboxamide]	35 nM	357%
COc1nccc2c1C(=O)N[C@H](C(=O)NCCc1noc(C3CC3)n1)CC(=O)N(C)[C@@H](CC(C)C)C(=O)N(C)[C@H](COC1CCC1)C(=O)N[C@H](Cc1ccccc1)CO2 [Example 857, (3R,6R,9S,13S)-3-benzyl-6-(cyclobutoxymethyl)-N-(2-(5-cyclopropyl-1,2,4-oxadiazol-3-yl)ethyl)-9-isobutyl-16-methoxy-7,10-dimethyl-5,8,11,15-tetraoxo-2,3,4,5,6,7,8,9,10,11,12,13,14,15-tetradecahydropyrido[3,4-p][1]oxa[4,7,10,14]tetraazacycloheptadecine-13-carboxamide]	407 nM	337%
